Results: patent US20230125249A1 (FIRMENICH SA, priority 2017, published 2023)

Assays:
[1] = target: T1, Olfr1440 (Mus musculus, UniProt Q8VFV4); assay: Control enhancement experiment on mouse ortholog receptor; type: cell-based
T1 construct: expressed in transfected cells
T1 sequence (Q8VFV4 1-315): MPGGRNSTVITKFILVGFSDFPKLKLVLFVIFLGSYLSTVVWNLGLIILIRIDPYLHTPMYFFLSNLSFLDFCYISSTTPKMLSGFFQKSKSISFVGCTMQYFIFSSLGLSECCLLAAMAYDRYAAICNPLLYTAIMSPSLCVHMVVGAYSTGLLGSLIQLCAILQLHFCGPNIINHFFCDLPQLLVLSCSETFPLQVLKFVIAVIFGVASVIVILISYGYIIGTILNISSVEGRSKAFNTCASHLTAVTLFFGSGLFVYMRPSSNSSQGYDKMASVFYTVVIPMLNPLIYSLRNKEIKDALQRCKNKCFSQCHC
Method: (§1) The level of enhancement of the OR5AN1 olfactory receptor activation was evaluated at distinct concentrations of the enhancer. […] The curves were obtained by applying the simplified Allosteric EC50 shift effect equation (available in Prism5, v. 5.02) derived from the ternary complex interaction model.
Furthermore and as a control, a similar experiment was performed on the mouse MUSCENONE® responsive odorant receptor Olfr1440, the ortholog of OR5AN1.

[2] = target: T2, OR5AN1 olfactory receptor (Homo sapiens, UniProt Q8NGI8); assay: Allosteric EC50 shift analysis: MUSCENONE® dose response with serial concentrations of enhancer; type: cell-based
T2 construct: expressed in transfected cells
T2 sequence (Q8NGI8 1-311): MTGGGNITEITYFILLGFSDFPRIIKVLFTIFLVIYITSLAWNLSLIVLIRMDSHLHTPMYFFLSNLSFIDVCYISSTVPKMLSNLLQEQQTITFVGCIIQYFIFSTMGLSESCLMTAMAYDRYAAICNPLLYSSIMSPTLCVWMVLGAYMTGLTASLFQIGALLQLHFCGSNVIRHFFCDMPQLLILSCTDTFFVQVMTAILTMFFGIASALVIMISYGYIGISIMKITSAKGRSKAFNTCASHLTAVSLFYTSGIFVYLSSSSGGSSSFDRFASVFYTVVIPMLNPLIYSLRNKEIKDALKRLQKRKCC
Method: as §1

[3] = target: T2, OR5AN1 olfactory receptor; assay: Dose-response of individual candidate alone (intrinsic agonist activity) on OR5AN1; type: cell-based
Method: 15 candidates, marked as “enhancement” in Table 2 were identified. Strikingly, 80% of these putative enhancers (12/15) belonged to the same class of chemicals: unsaturated aliphatic aldehydes. Next, two parallel dose-response experiments to confirm the true enhancement properties of the potential candidates were performed. First, a dose-response of each individual candidate was performed to determine if it was an agonist by itself. Second, a MUSCENONE® dose-response curve in the presence and absence of a 250 μM concentration of the putative modulator was assessed for EC50 shifts.

[4] = system: OR5AN1 allele 3; assay: Cell based assay of hypofunctional OR5AN1 allele 3 with and without enhancer; parameters: species or system human; conditions: allele 3, presence vs absence of enhancer
[5] = system: OR5AN1 allele 4; assay: Cell based assay of hypofunctional OR5AN1 allele 4 with and without enhancer; parameters: species or system human; conditions: allele 4, presence vs absence of enhancer
[6] = target: T2, OR5AN1 olfactory receptor; assay: MUSCENONE®/musk dose-response on OR5AN1 in presence and absence of putative modulator (EC50 shift, span); type: cell-based; conditions: enhancer at 250 μM, FIG. 3A
Method: Next, two parallel dose-response experiments to confirm the true enhancement properties of the potential candidates were performed. First, a dose-response of each individual candidate was performed to determine if it was an agonist by itself.
The resulting enhancement was quantified by means of EC50-fold shift (potency increase) and the efficacy span ratio (efficacy increase).
The EC50-fold shift was obtained by dividing the EC50 of MUSCENONE® +compound by the reference EC50 MUSCENONE® alone. The span ratio was obtained by dividing the span of MUSCENONE®+compound by the reference span of MUSCENONE® alone.

## CCCCCCCCCC/C=C/C=O [tridecylenic aldehyde]
[1]
  Effect on Olfr1440 MUSCENONE®-induced activation: slight inhibition
[2]; Allosteric EC50 shift model, enhancer 0 to 1 mM
  α (cooperativity factor): 15.7
[2]; read-out: KB (equilibrium dissociation constant)
  Kb: 259 µM
[3]
  Activation of OR5AN1 by the compound by itself: did not activate the OR5AN1 olfactory receptor by itself
[3]; above approximately 100 μM
  Activation by compound alone relative to the MUSCENONE® activation window: less than 8%
[4]
  Activity span-ratio: 2.02
[5]
  Activity span-ratio: 2.16
[6]
  Maximal activation level (span) of MUSCENONE®: increased span
